# In patent EP2718307B1, “BETA-HAIRPIN PEPTIDOMIMETICS AS CXC4 ANTAGONISTS” (Polyphor AG, priority 2011, dated 2012):
# Bridge positions count the residues as written; N and C are the ends. Square brackets hold non-standard residues; d marks the D form. Peptide text beside a SMILES is read from it. Lys(iPr) = CC(C)NCCCC[C@H](N)C(=O)O; Orn(iPr) = CC(C)NCCC[C@H](N)C(=O)O
# Tested on: HSC mobilization
# Experiment: HSC mobilization in mouse (time-response and dose-response study, CFU-C assay)
# Assay type: in vivo, Male C57BI/6 mice
# Conditions: for time of maximum mobilization: from time-response study; for ED50: sigmoidal fit of doses 1.5, 5 and 15 mg/kg i.p., maximum constrained to 4000 CFU/mL, ED50 corresponds to 2000 CFU/mL
# Method: For the compounds of Ex. 1 and Ex. 2 a HSC mobilization study was performed consisting of a time-response study to assess the time of maximum mobilization after dosing and a subsequent dose-response study.
# Male C57BI/6 mice (Janvier, France; n = 5 for Ex. 1, n = 3 for Ex. 2) received bolus i.p. injections of Ex. 1 and Ex. 2, respectively, (5 mg/kg) dissolved in 10 µL of water per g mouse weight containing 0.9% NaCl. Blood was withdrawn from the cheek pouch into EDTA coated tubes for the time points 0, 0.5, 1, 2, 4, 6 and 8 hrs after administration. The colony forming unit in culture counts (CFU-C counts) were determined by performing a CFU-C assay as described below.
# Male C57BI/6 mice (Janvier, France; n = 5 per dose group for Ex. 1, n = 3 per dose group for Ex. 2) received bolus i.p. injections of Ex. 1 and Ex. 2, respectively, at doses of 0.5, 1.5, 5 and 15 mg/kg (compound dissolved in 10 µL of water per g mouse weight containing 0.9% NaCl). Blood was collected as described above at the time of maximum mobilization for Ex. 1 (4 h) and Ex. 2 (2 h), respectively.
# CFU-C counts were determined by culturing aliquots of lysed peripheral blood in standard semi-solid progenitor cell culture medium. In brief, a defined amount of blood was washed with PBS buffer (Gibco®) containing 0.5% bovine serum albumin, followed by red blood cell lysis in hypotonic NH4Cl buffer (Sigma) and a second wash step. The cell pellet was resuspended in DMEM (Gibco®) containing 10% FCS, suspended in 2 mL of commercially available, cytokine-replete methylcellulose medium for murine cells (Cell Systems, USA), and plated in duplicate into 35 mm cell culture dishes. CFU-C were scored after 7-8 days incubation under standard conditions (20% O2, saturated humidity, 5% CO2, 37 °C). Peripheral blood cellularity was analyzed using an automated blood count machine (Drew Scientific).
# Considering the curve progressions of both compounds the dose-responses are constrained to a maximum response of 4000 CFU/mL. The ED50-values indicated in Table 9 are therefore corresponding to a response of 2000 CFU/mL.
# [1] = time-response study, 5 mg/kg bolus i.p., 0.5 h after administration
# [2] = time-response study, 5 mg/kg bolus i.p., 1 h after administration
# [3] = time-response study, 5 mg/kg bolus i.p., 2 h after administration
# [4] = time-response study, 5 mg/kg bolus i.p., 4 h after administration
# [5] = time-response study, 5 mg/kg bolus i.p., 6 h after administration
# [6] = time-response study, 5 mg/kg bolus i.p., 8 h after administration
SMILES,"CFU/mL ± SD (dose-response study, 0.5 mg/kg bolus i.p., blood collected at 4 h)","CFU/mL ± SD (dose-response study, 1.5 mg/kg bolus i.p., blood collected at 4 h)","CFU/mL ± SD (dose-response study, 5 mg/kg bolus i.p., blood collected at 4 h)","CFU/mL ± SD (dose-response study, 15 mg/kg bolus i.p., blood collected at 4 h)",time of maximum mobilization (5 mg/kg bolus i.p.),ED50,CFU/mL ± SD [1],CFU/mL ± SD [2],CFU/mL ± SD [3],CFU/mL ± SD [4],CFU/mL ± SD [5],CFU/mL ± SD [6],"CFU/mL ± SD (dose-response study, 1.5 mg/kg bolus i.p., blood collected at 2 h)","CFU/mL ± SD (dose-response study, 5 mg/kg bolus i.p., blood collected at 2 h)","CFU/mL ± SD (dose-response study, 15 mg/kg bolus i.p., blood collected at 2 h)"
"CC(C)NCCCC[C@@H]1NC(=O)[C@H](CCC(N)=O)NC(=O)[C@H](Cc2ccc(O)cc2)NC(=O)[C@@H]2CSSC[C@H](NC(=O)[C@H](Cc3ccc(O)cc3)NC(=O)[C@H](Cc3c[nH]cn3)NC(=O)[C@H](Cc3ccc(O)cc3)NC(=O)[C@@H]3CCCN3C(=O)[C@H]3CCCN3C1=O)C(=O)N[C@@H](CO)C(=O)N[C@@H](C)C(=O)N1CCC[C@@H]1C(=O)N[C@@H](CCCNC(C)C)C(=O)N[C@@H](CCCNC(=N)N)C(=O)N[C@@H](Cc1ccc(O)cc1)C(=O)N2 [Ex. 1, cyclo(-Tyr^1-His^2-Tyr^3-Cys^4-Ser^5-Ala^6-^DPro^7-Orn(iPr)^8-Arg^9-Tyr^10-Cys^11-Tyr^12-Gln^13-Lys(iPr)^14-^DPro^15-Pro^16-), disulfide bond between Cys^4 and Cys^11] (cyclo(YHYCSA[dP][Orn(iPr)]RYCYQ[Lys(iPr)][dP]P); disulfide 4-11)",974 ± 57 CFU/mL,1672 ± 233 CFU/mL,3325 ± 310 CFU/mL,3289 ± 431 CFU/mL,4 h,1.76 mg/kg,511 ± 85 CFU/mL,2208 ± 262 CFU/mL,2592 ± 450 CFU/mL,3109 ± 537 CFU/mL,1857 ± 281 CFU/mL,588 ± 161 CFU/mL,,,
"COc1ccc(C[C@@H]2NC(=O)[C@H](Cc3c[nH]cn3)NC(=O)[C@H](Cc3ccc(O)cc3)NC(=O)[C@@H]3CCCN3C(=O)[C@H]3CCCN3C(=O)[C@H](CCCCNC(C)C)NC(=O)[C@H](CCC(N)=O)NC(=O)[C@H](Cc3ccc(O)cc3)NC(=O)[C@@H]3CSSC[C@H](NC2=O)C(=O)N[C@@H](CO)C(=O)N[C@@H](C)C(=O)N2CCC[C@@H]2C(=O)N[C@@H](CCCNC(C)C)C(=O)N[C@@H](CCCNC(=N)N)C(=O)N[C@@H](Cc2ccc(O)cc2)C(=O)N3)cc1 [Ex. 2, cyclo(-Tyr^1-His^2-Tyr(Me)^3-Cys^4-Ser^5-Ala^6-^DPro^7-Orn(iPr)^8-Arg^9-Tyr^10-Cys^11-Tyr^12-Gln^13-Lys(iPr)^14-^DPro^15-Pro^16-), disulfide bond between Cys^4 and Cys^11] (cyclo(YHY(Me)CSA[dP][Orn(iPr)]RYCYQ[Lys(iPr)][dP]P); disulfide 4-11)",,,,,2 h,2.38 mg/kg,839 ± 148 CFU/mL,1020 ± 262 CFU/mL,2894 ± 329 CFU/mL,1929 ± 643 CFU/mL,1164 ± 151 CFU/mL,373 ± 96 CFU/mL,1314 ± 463 CFU/mL,2894 ± 329 CFU/mL,3589 ± 576 CFU/mL
